Where two headings read alike, the source gives them in different places.
Tested on: 134 cancer cell lines
Assay: Cell viability assay (ATPlite, 72 hours), IC50 on cancer cell line panel

**Q.** With O=C(c1ccc(F)c(F)c1Nc1ccc(I)cc1F)N1CC(O)([C@@H]2CCCCN2)C1 [cobimetinib] as the compound, how does the IC50 (HEC-6, read-out: IC50 in cell proliferation assay, HEC-6 cell line (EGFR p.A289V)) read?
**A.** 164 nM

**Q.** What about the IC50 (Homo sapiens, 769-P, read-out: IC50 in cell proliferation assay, cell line 769-P) of the same compound?
**A.** 423 nM

**Q.** What about the IC50 (Homo sapiens, 786-0, read-out: IC50 in cell proliferation assay, cell line 786-O) of the same compound?
**A.** 205 nM

**Q.** And the IC50 (Homo sapiens, A 172, read-out: IC50 in cell proliferation assay, cell line A-172)?
**A.** 218 nM

**Q.** And the IC50 (Homo sapiens, A204, read-out: IC50 in cell proliferation assay, cell line A-204)?
**A.** 900 nM

**Q.** What about the IC50 (Homo sapiens, A498, read-out: IC50 in cell proliferation assay, cell line A-498) of the same compound?
**A.** 3910 nM

**Q.** What about the IC50 (Homo sapiens, A549, read-out: IC50 in cell proliferation assay, cell line A-549) of the same compound?
**A.** 255 nM

**Q.** What about the IC50 (Homo sapiens, A704, read-out: IC50 in cell proliferation assay, cell line A-704) of the same compound?
**A.** > 10000 nM

**Q.** What about the IC50 (Homo sapiens, A-375, read-out: IC50 in cell proliferation assay, cell line A-375 (BRAF p.V600E)) of the same compound?
**A.** 13 nM

**Q.** What about the IC50 (Homo sapiens, A-427, read-out: IC50 in cell proliferation assay, cell line A-427) of the same compound?
**A.** 72 nM

**Q.** And the IC50 (Homo sapiens, ACHN, read-out: IC50 in cell proliferation assay, cell line ACHN)?
**A.** 104 nM

**Q.** What about the IC50 (Homo sapiens, AN3-CA, read-out: IC50 in cell proliferation assay, cell line AN3-CA (FGFR2 p.N549K)) of the same compound?
**A.** 558 nM

**Q.** What about the IC50 (Homo sapiens, ASPC1, read-out: IC50 in cell proliferation assay, cell line AsPC-1) of the same compound?
**A.** 61 nM

**Q.** And the IC50 (Homo sapiens, AU565, read-out: IC50 in cell proliferation assay, cell line AU565 (ERBB2 amplification))?
**A.** > 10000 nM

**Q.** And the IC50 (Homo sapiens, BT-20, read-out: IC50 in cell proliferation assay, cell line BT-20)?
**A.** > 10000 nM

**Q.** What about the IC50 (Homo sapiens, BT-474, read-out: IC50 in cell proliferation assay, cell line BT-474 (ERBB2 amplification)) of the same compound?
**A.** 5990 nM

**Q.** And the IC50 (Homo sapiens, BT-549, read-out: IC50 in cell proliferation assay, cell line BT-549)?
**A.** 5720 nM

**Q.** And the IC50 (Homo sapiens, BXPC-3, read-out: IC50 in cell proliferation assay, cell line BxPC-3)?
**A.** 10 nM

**Q.** What about the IC50 (Homo sapiens, C-33-A, read-out: IC50 in cell proliferation assay, cell line C-33 A) of the same compound?
**A.** 43 nM

**Q.** And the IC50 (Homo sapiens, CAL-27, read-out: IC50 in cell proliferation assay, cell line CAL-27)?
**A.** 63 nM

**Q.** What about the IC50 (Homo sapiens, CCF-STTG1, read-out: IC50 in cell proliferation assay, cell line CCF-STTG1) of the same compound?
**A.** > 10000 nM

**Q.** What about the IC50 (Homo sapiens, CCRF-CEM, read-out: IC50 in cell proliferation assay, cell line CCRF-CEM) of the same compound?
**A.** 8480 nM

**Q.** What about the IC50 (Homo sapiens, COLO 205, read-out: IC50 in cell proliferation assay, cell line COLO 205 (BRAF p.V600E)) of the same compound?
**A.** 10 nM

**Q.** And the IC50 (Homo sapiens, COLO-829, read-out: IC50 in cell proliferation assay, cell line COLO 829 (BRAF p.V600E))?
**A.** 28 nM

**Q.** And the IC50 (Homo sapiens, DLD-1, read-out: IC50 in cell proliferation assay, cell line DLD-1)?
**A.** 724 nM

**Q.** And the IC50 (Homo sapiens, DU-4475, read-out: IC50 in cell proliferation assay, cell line DU4475 (BRAF p.V600E))?
**A.** 17 nM

**Q.** What about the IC50 (Homo sapiens, Daoy, read-out: IC50 in cell proliferation assay, cell line Daoy) of the same compound?
**A.** > 10000 nM

**Q.** What about the IC50 (Homo sapiens, DoTc2-4510, read-out: IC50 in cell proliferation assay, cell line DoTc2 4510) of the same compound?
**A.** 42 nM

**Q.** And the IC50 (Homo sapiens, EOL1, read-out: IC50 in cell proliferation assay, cell line EoL-1 (FIP1L1-PDGFRA))?
**A.** 87 nM

**Q.** What about the IC50 (Homo sapiens, FaDu, read-out: IC50 in cell proliferation assay, cell line FaDu) of the same compound?
**A.** 146 nM

**Q.** And the IC50 (Homo sapiens, G-361, read-out: IC50 in cell proliferation assay, cell line G-361 (BRAF p.V600E))?
**A.** 11 nM

**Q.** And the IC50 (Homo sapiens, HCC827, read-out: IC50 in cell proliferation assay, cell line HCC827 (EGFR exon19del))?
**A.** 321 nM

**Q.** And the IC50 (Homo sapiens, HCC4006, read-out: IC50 in cell proliferation assay, cell line HCC4006 (EGFR exon19del))?
**A.** 1280 nM

**Q.** And the IC50 (Homo sapiens, HCT-15, read-out: IC50 in cell proliferation assay, cell line HCT 15)?
**A.** 3580 nM

**Q.** And the IC50 (Homo sapiens, HCT-116, read-out: IC50 in cell proliferation assay, cell line HCT 116)?
**A.** 106 nM

**Q.** What about the IC50 (Homo sapiens, HEC-1, read-out: IC50 in cell proliferation assay, HEC-1 cell line) of the same compound?
**A.** 368 nM

**Q.** And the IC50 (Homo sapiens, HEC-1B, read-out: IC50 in cell proliferation assay, HEC-1-B cell line (EGFR p.A864V))?
**A.** 13 nM

**Q.** And the IC50 (Homo sapiens, HL-60, read-out: IC50 in cell proliferation assay, HL-60 cell line)?
**A.** 19 nM

**Q.** And the IC50 (Homo sapiens, HT, read-out: IC50 in cell proliferation assay, HT cell line)?
**A.** > 10000 nM

**Q.** What about the IC50 (Homo sapiens, HT-1080, read-out: IC50 in cell proliferation assay, HT-1080 cell line) of the same compound?
**A.** 68 nM

**Q.** What about the IC50 (Homo sapiens, Hs746T, read-out: IC50 in cell proliferation assay, Hs 746.T cell line (MET exon14skip + amplification)) of the same compound?
**A.** 530 nM

**Q.** What about the IC50 (Homo sapiens, Hs-578T, read-out: IC50 in cell proliferation assay, Hs 578T cell line) of the same compound?
**A.** 2220 nM

**Q.** What about the IC50 (Homo sapiens, HuTu80, read-out: IC50 in cell proliferation assay, HuTu 80 cell line) of the same compound?
**A.** 319 nM

**Q.** What about the IC50 (Homo sapiens, J82, read-out: IC50 in cell proliferation assay, J82 cell line) of the same compound?
**A.** 85 nM

**Q.** And the IC50 (Homo sapiens, Jurkat E6.1, read-out: IC50 in cell proliferation assay, Jurkat E6.1 cell line)?
**A.** > 10000 nM

**Q.** And the IC50 (Homo sapiens, K562, read-out: IC50 in cell proliferation assay, K-562 cell line)?
**A.** 73 nM

**Q.** And the IC50 (Homo sapiens, KATO III, read-out: IC50 in cell proliferation assay, KATO III cell line (FGFR2 amplification))?
**A.** 291 nM

**Q.** And the IC50 (Homo sapiens, KG-1, read-out: IC50 in cell proliferation assay, KG-1 cell line (FGFR1OP2-FGFR1))?
**A.** 26 nM

**Q.** And the IC50 (Homo sapiens, KLE, read-out: IC50 in cell proliferation assay, KLE cell line)?
**A.** > 10000 nM

**Q.** And the IC50 (Homo sapiens, KMS-11, read-out: IC50 in cell proliferation assay, KMS-11 cell line (FGFR3 p.Y373C))?
**A.** 4120 nM

**Q.** And the IC50 (Homo sapiens, KU812, read-out: IC50 in cell proliferation assay, Ku812 cell line)?
**A.** 64 nM

**Q.** What about the IC50 (Homo sapiens, Kasumi 1, read-out: IC50 in cell proliferation assay, Kasumi-1 cell line (KIT p.N822K)) of the same compound?
**A.** 62 nM

**Q.** What about the IC50 (Homo sapiens, LC-2-ad, read-out: IC50 in cell proliferation assay, LC-2/ad cell line (CCDC6-RET)) of the same compound?
**A.** 1190 nM

**Q.** And the IC50 (Homo sapiens, LNCaP-Clone-FGC, read-out: IC50 in cell proliferation assay, LNCaP clone FGC cell line)?
**A.** 9640 nM

**Q.** What about the IC50 (Homo sapiens, LS174T, read-out: IC50 in cell proliferation assay, LS174T cell line) of the same compound?
**A.** 25 nM

**Q.** What about the IC50 (Homo sapiens, LS-411N, read-out: IC50 in cell proliferation assay, LS411N cell line (BRAF p.V600E)) of the same compound?
**A.** 21 nM

**Q.** And the IC50 (Homo sapiens, LoVo, read-out: IC50 in cell proliferation assay, LoVo cell line)?
**A.** 118 nM

**Q.** What about the IC50 (Homo sapiens, MCF7, read-out: IC50 in cell proliferation assay, MCF-7 cell line) of the same compound?
**A.** 8550 nM

**Q.** What about the IC50 (Homo sapiens, MDA-MB-231, read-out: IC50 in cell proliferation assay, MDA-MB-231 cell line) of the same compound?
**A.** 192 nM

**Q.** And the IC50 (Homo sapiens, MDA-MB-453, read-out: IC50 in cell proliferation assay, MDA-MB-453 cell line)?
**A.** 501 nM

**Q.** And the IC50 (Homo sapiens, MDA-MB-468, read-out: IC50 in cell proliferation assay, MDA-MB-468 cell line)?
**A.** 248 nM

**Q.** And the IC50 (Homo sapiens, MG-63, read-out: IC50 in cell proliferation assay, MG-63 cell line)?
**A.** 421 nM

**Q.** What about the IC50 (Homo sapiens, MIA PaCa-2, read-out: IC50 in cell proliferation assay, MIA PaCa-2 cell line) of the same compound?
**A.** 68 nM

**Q.** What about the IC50 (Homo sapiens, MKN-45, read-out: IC50 in cell proliferation assay, MKN45 cell line (MET amplification)) of the same compound?
**A.** 294 nM

**Q.** And the IC50 (Homo sapiens, MOLM-13, read-out: IC50 in cell proliferation assay, MOLM-13 cell line (FLT3 ITD))?
**A.** 172 nM

**Q.** What about the IC50 (Homo sapiens, MOLT-4, read-out: IC50 in cell proliferation assay, MOLT-4 cell line) of the same compound?
**A.** > 10000 nM

From PMC9516332 (Frontiers in Oncology, 2022)
